Assay results from patent publication US20040167112A1, “Use of estrogen receptor alpha modulators for the treatment of multiple sclerosis” (Wyeth, priority 2003, published 2004).
Entries after “also recorded” stand apart in the source; their conditions may differ.

How the values were obtained:
[1] = tested on: experimental autoimmune encephalomyelitis (EAE); assay: EAE induced by adoptive transfer of PLP-primed effector cells: clinical disease; type: in vivo, SJL mice; details: for onset, incidence and severity of disease (EAE): ovariectomized female SJL recipient mice, compounds daily s.c. or p.o. from 5-7 days before transfer, severity scale 0-6
[2] = tested on: experimental autoimmune encephalomyelitis (EAE), brain and spinal cord; assay: Histological analysis of brains and spinal cords of EAE mice at peak disease; type: in vivo, SJL mice
Protocol: Histological Analysis. At peak disease (14 days PT), mice were euthanized with CO2. […] Brains were cut into three segments (roughly, anterior cerebrum, midbrain and cerebellum) and embedded as a single block. […] A standard H&E (hematoxylin and eosin) glass slide was prepared from each tissue block (brain and spinal cord) from each mouse submitted with two resulting H&E slides per mouse evaluated. Slides were evaluated and lesions seen were graded subjectively for presence (P=present) and/or severity. […] The location of findings, relative to the organ, was denoted as perivascular, periventricular, ependymal or meningeal, and also as focal (in small areas or not throughout the section), or diffuse (throughout the section examined). Focal was defined as very localized and not affecting every structure. Findings not defined as focal were diffuse or affecting every structure (e.g. all vessels). […] Typical murine models of EAE have scattered foci of slight to moderate-sized aggregates of leukocytes and rarely have diffuse infiltrates in the affected tissues.

[3] = tested on: PLP-primed effector cells (splenocytes); assay: Cytokine production by PLP-primed effector cells upon antigen stimulation in vitro; type: cell-based, SJL mice; details: compound 1 μM, 5 μg/ml PLP, 3 days
Protocol: To examine in vitro the effect of compounds on cytokine production by PLP-primed effector cells, SJL mice were immunized with PLP emulsified in CFA. After 10 days, spleens were collected and single cell suspensions were made. After lysis of red blood cells, splenocytes were stimulated with 5 μg/ml PLP in the presence of compound for 3 days at 37° C., 5% CO2. Control samples were not stimulated and cultured in medium only (“medium”). Compounds were added at a final concentration of 1 μM. After the 3-day incubation, supernatants were collected and stored at −20° C. Cytokines (TNF-α, IFN-γ, IL-5, IL-4, IL-2) were measured in the supernatants using a Cytometric Bead Array kit.

[4] = tested on: PLP-primed effector T cells (splenocytes); assay: Proliferation of effector T cells upon antigen (PLP) stimulation, CFSE flow cytometry; type: cell-based, SJL mice; details: compound 1 μM, 3 days
Description: Effect of compounds on proliferation of effector T cells upon antigen stimulation To examine the effect of proliferation of effector T cells in vitro in response to PLP stimulation, T-cell proliferation was examined by flow cytometry using the following assay. SJL mice were immunized with PLP emulsified in CFA. After 10 days, spleens were collected and single cell suspensions were made. After lysis of red blood cells, splenocytes were labeled with carboxy fluorescein succinimidyl ester (CFSE). CFSE-labeled cells were then incubated with PLP for 3 days at 37° C., 5% CO2. Compounds were added at a final concentration of 1 μM. To determine the percentage of CD4^+ cells that divided, the CFSE-labeled cells were stained with antibodies specific for the CD4 marker prior to flow cytometric analysis.

[5] = Table II, 14 days PT, grade 0-5
[6] = Table II, 14 days PT, grade 0 within normal limits to 5 severe
[7] = Table III (ER-selective agonists), 14 days PT
[8] = Table III (ER-selective agonists), 14 days PT, grade 0-5

| SMILES | Brain Meningeal/Perivascular Leukocyte Infiltrates: number of brains with finding/total number evaluated ([2]; Table II, 14 days PT) | Spinal Cord Demyelination: number with finding/total number evaluated ([2]; Table II, 14 days PT) | Spinal Cord Meningeal/Perivascular Leukocyte Infiltrates: number with finding/total number evaluated ([2]; Table II, 14 days PT) | Spinal Cord Meningeal/Perivascular Leukocyte Infiltrates: average severity grade of lesions seen [2, 5] | Brain Meningeal/Perivascular Leukocyte Infiltrates: average severity grade of lesions seen [2, 6] | onset, incidence and severity of disease (EAE) [1] | Brain Meningeal/Perivascular Leukocyte Infiltrates: number of brains with finding/total number evaluated [2, 7] | Spinal Cord Demyelination: number with finding/total number evaluated [2, 7] | Spinal Cord Meningeal/Perivascular Leukocyte Infiltrates: number with finding/total number evaluated [2, 7] | Brain Meningeal/Perivascular Leukocyte Infiltrates: average severity grade of lesions seen [2, 8] | Spinal Cord Demyelination: average severity grade of lesions seen [2, 8] | Spinal Cord Meningeal/Perivascular Leukocyte Infiltrates: average severity grade of lesions seen [2, 8] | also measured |
| --- | --- | --- | --- | --- | --- | --- | --- | --- | --- | --- | --- | --- | --- |
| Cc1c(-c2ccc(O)cc2)n(Cc2ccc(OCCN3CCCCC3)cc2)c2ccc(O)cc12.Cl.O [Compound A] | 3/5 | 0/5 | 1/5 | 1 | 2.7 |  |  |  |  |  |  |  | onset, incidence and severity of disease (EAE) ([1]; hydrochloride monohydrate): delay in onset as well as decreased incidence and severity of disease; also recorded: delayed onset of disease, as well as decreased incidence and severity; demyelination in spinal cords ([2]; SERM experiment): no demyelination was detected; amount of inflammatory cells infiltrating the spinal cords and brains ([2]; compared to mice from other treatment groups (text, SERM experiment)): reduction; pathology and leukocyte infiltration in the brains and spinal cords ([2]; conclusions): reduced pathology and leukocyte infiltration; IFN-γ production by effector T cells upon antigen stimulation [3]: suppressed; IL-4 production by effector T cells upon antigen stimulation [3]: concomitant increase; TNF-α production by effector T cells upon antigen stimulation [3]: inhibited; cytokine production by effector cells upon antigen stimulation [3]: decreased cytokine production; proliferation of CD4+ cells upon antigen stimulation [4]: suppressed; proliferation of CD4− cells upon antigen stimulation [4]: suppressed; proliferation of antigen-specific T cells [4]: decreased proliferation |
| C[C@]12CC[C@@H]3c4ccc(O)cc4CC[C@H]3[C@@H]1CC[C@@H]2O [Compound E2, 17β-estradiol] | 4/4 | ¾ | ¾ | 1.7 | 2.5 | delay in onset as well as decreased incidence and severity of disease | 3/4 | 1/4 | 2/4 | 1.7 | 1 | 1 | Spinal Cord Demyelination: average severity grade of lesions seen [2, 5]: 1.3; Distribution of Brain Lesions [2, 7]: Meningeal |
| C=Cc1cc(O)cc2nc(-c3ccc(O)c(F)c3)oc12 [ERβ-041] |  |  |  |  |  |  | 4/4 | 2/4 | 2/4 | 2.3 | 1.5 | 1.5 |  |
| C[C@]12CC[C@@H]3c4ccc(O)cc4C[C@@H](CCCCCCCCC[S+]([O-])CCCC(F)(F)C(F)(F)F)[C@H]3[C@@H]1CC[C@@H]2O (some centres unmarked) [ICI 182,780] |  |  |  |  |  |  |  |  |  |  |  |  | effect of ER antagonist on estrogen-mediated suppression of disease ([1]; mice treated with both E2 and ICI 182,780): abolished the effect of E2 on disease |
| CCCc1c(-c2ccc(O)cc2)nn(-c2ccc(O)cc2)c1-c1ccc(O)cc1 [PPT, propylpyrazole triol] |  |  |  |  |  |  |  | 0/4 | 0/4 | 1 |  |  |  |
| O=C(c1ccc(OCCN2CCCCC2)cc1)c1c(-c2ccc(O)cc2)sc2cc(O)ccc12 [Raloxifene, raloxifene] |  |  |  |  |  | delay in onset as well as decreased incidence and severity of disease; also recorded: delayed onset of disease, as well as decreased incidence and severity |  |  |  |  |  |  |  |
